In patent US11697648B2, “Fused pyrimidine pyridinone compounds as JAK inhibitors” (THERAVANCE BIOPHARMA R&D IP, LLC, priority 2019, dated 2023):

Assays:
JAK1 = JAK1 (Homo sapiens (Human), UniProt P23458); assay: Biochemical JAK1 kinase assay (LanthaScreen)
Method in brief: (§1)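 GST-JAK + GFP-STAT1 peptide, HEPES pH 7.5/MgCl2/EGTA/Brij-35 buffer; cpd preincubation 1 h RT; ATP start, 1 h RT; stop with 10 mM EDTA + 2 nM Tb-anti-pSTAT1; TR-FRET 520/495. 4-parameter IC50 → pKi (Cheng-Prusoff).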

JAK2 = JAK2 (Homo sapiens (Human), UniProt O60674); assay: Biochemical JAK2 kinase assay (LanthaScreen)
Method in brief: as §1

JAK3 = JAK3 (Homo sapiens (Human), UniProt P52333); assay: Biochemical JAK3 kinase assay (LanthaScreen)
Method in brief: as §1

Tyk2 = Tyk2 (Homo sapiens (Human), UniProt P29597); assay: Biochemical Tyk2 kinase assay (LanthaScreen)
Method in brief: as §1

[1] = tested on: IL-2 stimulated STAT5 phosphorylation in Tall-1 human T cell line (JAK3); assay: Cellular JAK3 potency assay: inhibition of IL-2 stimulated pSTAT5 in Tall-1 T cells; type: cell-based
Method in brief: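 AlphaLISA SureFire Ultra measures STAT5 Tyr694/699 phosphorylation in lysed Tall-1 human T cells. Cells were exposed to compound for 1 h at 37 °C before a 30 min IL-2 challenge (300 ng/ml final). Values are pIC50 means with standard deviation from signal-versus-concentration curves.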

[2] = selectivity JAK3 over JAK1, difference of pKi
[3] = IL-2 stimulated pSTAT5, Tall-1 T cells

JAK3, sequence (P52333 whole entry): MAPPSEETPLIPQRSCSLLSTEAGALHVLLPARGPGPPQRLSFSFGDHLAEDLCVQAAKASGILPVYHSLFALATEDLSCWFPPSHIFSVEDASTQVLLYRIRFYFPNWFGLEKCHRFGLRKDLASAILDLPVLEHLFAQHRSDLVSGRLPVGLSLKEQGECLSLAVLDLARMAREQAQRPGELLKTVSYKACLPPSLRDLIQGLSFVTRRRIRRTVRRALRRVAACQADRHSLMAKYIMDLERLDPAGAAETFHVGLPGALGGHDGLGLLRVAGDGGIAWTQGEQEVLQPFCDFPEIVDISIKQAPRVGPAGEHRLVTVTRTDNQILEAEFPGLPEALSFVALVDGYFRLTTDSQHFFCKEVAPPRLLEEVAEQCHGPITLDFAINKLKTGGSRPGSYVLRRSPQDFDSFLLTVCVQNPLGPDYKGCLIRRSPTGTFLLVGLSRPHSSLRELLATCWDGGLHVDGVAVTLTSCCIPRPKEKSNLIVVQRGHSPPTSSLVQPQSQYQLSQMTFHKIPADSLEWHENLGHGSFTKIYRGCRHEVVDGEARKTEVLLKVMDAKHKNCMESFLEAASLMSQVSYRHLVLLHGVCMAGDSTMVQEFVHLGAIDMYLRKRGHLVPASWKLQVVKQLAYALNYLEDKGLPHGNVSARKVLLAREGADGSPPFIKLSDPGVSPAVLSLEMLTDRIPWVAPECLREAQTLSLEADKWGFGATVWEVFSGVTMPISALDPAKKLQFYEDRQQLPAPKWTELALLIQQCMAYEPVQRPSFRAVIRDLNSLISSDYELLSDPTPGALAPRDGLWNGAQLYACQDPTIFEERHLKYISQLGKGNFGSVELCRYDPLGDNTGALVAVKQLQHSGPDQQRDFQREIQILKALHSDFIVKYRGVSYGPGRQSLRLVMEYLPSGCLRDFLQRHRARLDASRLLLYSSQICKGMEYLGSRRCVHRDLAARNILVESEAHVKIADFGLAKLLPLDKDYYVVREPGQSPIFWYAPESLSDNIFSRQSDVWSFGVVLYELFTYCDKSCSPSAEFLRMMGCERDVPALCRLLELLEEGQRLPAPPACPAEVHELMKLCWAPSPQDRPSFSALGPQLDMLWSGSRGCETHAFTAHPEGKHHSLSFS
JAK1, sequence (P23458 whole entry): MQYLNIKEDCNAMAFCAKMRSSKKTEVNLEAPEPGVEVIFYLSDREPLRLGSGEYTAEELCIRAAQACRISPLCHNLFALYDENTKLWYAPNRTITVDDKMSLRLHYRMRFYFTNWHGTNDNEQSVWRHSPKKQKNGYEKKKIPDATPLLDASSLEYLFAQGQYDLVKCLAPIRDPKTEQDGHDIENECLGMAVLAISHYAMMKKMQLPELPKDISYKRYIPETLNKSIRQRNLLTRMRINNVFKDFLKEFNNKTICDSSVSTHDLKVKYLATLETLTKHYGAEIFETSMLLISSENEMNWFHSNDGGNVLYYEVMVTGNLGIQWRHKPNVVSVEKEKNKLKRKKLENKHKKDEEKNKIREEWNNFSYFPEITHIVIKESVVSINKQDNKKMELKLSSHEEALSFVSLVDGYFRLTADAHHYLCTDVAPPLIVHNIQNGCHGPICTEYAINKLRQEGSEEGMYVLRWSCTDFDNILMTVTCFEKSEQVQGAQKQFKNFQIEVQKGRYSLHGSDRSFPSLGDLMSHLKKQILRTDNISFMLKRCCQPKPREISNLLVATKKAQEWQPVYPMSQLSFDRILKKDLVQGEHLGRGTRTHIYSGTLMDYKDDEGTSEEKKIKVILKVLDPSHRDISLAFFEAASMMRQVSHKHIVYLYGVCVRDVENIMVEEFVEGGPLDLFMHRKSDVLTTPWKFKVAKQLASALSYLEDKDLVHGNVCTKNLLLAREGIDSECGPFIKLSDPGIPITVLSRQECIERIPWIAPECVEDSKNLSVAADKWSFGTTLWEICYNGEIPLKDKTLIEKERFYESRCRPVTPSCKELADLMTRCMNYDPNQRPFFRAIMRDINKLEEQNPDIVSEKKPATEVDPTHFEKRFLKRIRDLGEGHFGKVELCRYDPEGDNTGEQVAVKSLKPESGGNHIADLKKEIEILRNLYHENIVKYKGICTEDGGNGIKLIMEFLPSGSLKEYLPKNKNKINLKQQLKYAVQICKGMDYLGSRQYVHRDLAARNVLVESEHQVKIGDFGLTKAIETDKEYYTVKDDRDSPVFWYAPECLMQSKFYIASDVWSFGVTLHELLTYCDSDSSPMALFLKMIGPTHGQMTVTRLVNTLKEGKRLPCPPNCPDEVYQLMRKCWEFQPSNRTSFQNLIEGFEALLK
JAK2, sequence (O60674 whole entry): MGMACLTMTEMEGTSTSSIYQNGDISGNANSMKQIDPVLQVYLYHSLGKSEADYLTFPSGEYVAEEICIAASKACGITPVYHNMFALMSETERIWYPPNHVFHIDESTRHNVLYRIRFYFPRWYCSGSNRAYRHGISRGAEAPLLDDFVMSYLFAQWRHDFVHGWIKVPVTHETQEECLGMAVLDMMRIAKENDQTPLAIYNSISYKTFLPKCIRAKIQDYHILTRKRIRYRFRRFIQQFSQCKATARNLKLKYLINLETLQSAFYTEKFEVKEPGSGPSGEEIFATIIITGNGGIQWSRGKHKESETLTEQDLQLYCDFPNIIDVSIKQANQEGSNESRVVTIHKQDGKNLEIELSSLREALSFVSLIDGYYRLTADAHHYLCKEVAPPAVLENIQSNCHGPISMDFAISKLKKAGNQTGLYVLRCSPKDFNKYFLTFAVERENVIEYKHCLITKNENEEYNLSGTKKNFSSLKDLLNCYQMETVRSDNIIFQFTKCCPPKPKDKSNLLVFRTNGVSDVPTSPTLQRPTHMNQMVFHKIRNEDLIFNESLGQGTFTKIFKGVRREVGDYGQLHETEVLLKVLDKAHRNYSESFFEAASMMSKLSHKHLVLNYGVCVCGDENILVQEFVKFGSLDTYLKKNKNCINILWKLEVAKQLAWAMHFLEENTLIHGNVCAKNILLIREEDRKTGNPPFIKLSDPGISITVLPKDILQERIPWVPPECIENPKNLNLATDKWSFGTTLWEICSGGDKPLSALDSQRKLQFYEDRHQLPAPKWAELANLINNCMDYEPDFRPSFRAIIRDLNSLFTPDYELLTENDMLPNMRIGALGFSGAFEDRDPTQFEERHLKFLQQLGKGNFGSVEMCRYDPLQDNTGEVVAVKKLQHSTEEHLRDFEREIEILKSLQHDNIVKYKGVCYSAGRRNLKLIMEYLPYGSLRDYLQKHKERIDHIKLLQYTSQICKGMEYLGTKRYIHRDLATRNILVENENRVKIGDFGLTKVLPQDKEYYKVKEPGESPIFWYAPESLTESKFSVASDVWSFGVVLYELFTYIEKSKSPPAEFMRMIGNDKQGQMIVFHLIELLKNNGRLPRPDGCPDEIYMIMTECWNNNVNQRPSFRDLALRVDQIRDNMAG
Tyk2, sequence (P29597 whole entry): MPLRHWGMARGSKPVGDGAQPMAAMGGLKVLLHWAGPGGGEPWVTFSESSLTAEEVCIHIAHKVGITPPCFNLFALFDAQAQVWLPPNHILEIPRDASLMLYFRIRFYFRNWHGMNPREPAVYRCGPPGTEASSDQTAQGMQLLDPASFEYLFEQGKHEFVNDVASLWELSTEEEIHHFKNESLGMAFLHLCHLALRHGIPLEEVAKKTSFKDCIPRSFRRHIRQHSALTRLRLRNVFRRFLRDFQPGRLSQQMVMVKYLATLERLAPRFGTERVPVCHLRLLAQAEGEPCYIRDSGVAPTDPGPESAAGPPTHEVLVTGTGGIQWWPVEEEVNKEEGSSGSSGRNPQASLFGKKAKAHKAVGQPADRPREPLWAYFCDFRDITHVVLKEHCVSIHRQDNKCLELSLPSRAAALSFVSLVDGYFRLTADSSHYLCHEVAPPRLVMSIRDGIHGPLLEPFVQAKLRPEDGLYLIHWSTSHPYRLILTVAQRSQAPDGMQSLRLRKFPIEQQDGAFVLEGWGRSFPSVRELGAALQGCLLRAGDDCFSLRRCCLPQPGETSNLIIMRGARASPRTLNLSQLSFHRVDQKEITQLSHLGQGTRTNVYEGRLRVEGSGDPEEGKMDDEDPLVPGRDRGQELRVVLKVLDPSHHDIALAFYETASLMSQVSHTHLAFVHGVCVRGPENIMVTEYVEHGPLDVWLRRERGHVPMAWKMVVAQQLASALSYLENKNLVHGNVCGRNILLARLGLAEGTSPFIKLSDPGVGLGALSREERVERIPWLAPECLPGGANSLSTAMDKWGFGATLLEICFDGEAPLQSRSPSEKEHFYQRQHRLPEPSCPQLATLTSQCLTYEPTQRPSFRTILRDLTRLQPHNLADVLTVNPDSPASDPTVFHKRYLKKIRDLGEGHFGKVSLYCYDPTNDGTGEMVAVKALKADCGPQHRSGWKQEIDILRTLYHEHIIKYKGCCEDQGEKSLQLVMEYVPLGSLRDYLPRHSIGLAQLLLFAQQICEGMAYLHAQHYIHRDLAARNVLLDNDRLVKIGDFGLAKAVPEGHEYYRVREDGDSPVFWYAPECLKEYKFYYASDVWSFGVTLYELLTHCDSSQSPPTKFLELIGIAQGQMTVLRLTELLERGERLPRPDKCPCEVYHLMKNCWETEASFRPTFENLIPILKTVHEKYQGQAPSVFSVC

| SMILES | JAK 1 (pKi) (JAK1) | JAK 2 (pKi) (JAK2) | JAK 3 (pKi) (JAK3) | JAK3 (pKi)-JAK1 (pKi) (JAK3; [2]) | Tyk 2 (pKi) (Tyk2) | Tall-1 (pIC50) [1, 3] | JAK3 (pKi)-JAK1 (pKi) (JAK3; selectivity, difference of pKi values) | Tall-1 (pIC50) ([1]; IL-2 stimulated pSTAT5 in Tall-1 T cells) |
| --- | --- | --- | --- | --- | --- | --- | --- | --- |
| C=CC(=O)N1CCN(CCn2c(=O)ccc3cnc(Nc4ccc(N5CCN(C(C)=O)CC5)c(F)c4)nc32)CC1 [Example 152] | E (E represents a pKi value of 7 or below (Ki of 100 nM or above)) | E (E represents a pKi value of 7 or below (Ki of 100 nM or above)) | B (B represents pKi value between 9 and 10 (Ki between 1 nM and 0.1 nM)) | A (A represents a value of 3 or above) | E (E represents a pKi value of 7 or below (Ki of 100 nM or above)) | C (C represents a pIC50 value between 6 and 6.7 (IC50 between 1 μM and 200 nM)) |  |  |
| C=CC(=O)N1CCN(CCn2c(=O)ccc3cnc(Nc4cnn(CCOC(C)C)c4)nc32)[C@@H](C)C1 [Example 230] | E (E represents a pKi value of 7 or below (Ki of 100 nM or above)) | E (E represents a pKi value of 7 or below (Ki of 100 nM or above)) | B (B represents pKi value between 9 and 10 (Ki between 1 nM and 0.1 nM)) | A (A represents a value of 3 or above) | E (E represents a pKi value of 7 or below (Ki of 100 nM or above)) | B (B represents a pC50 value between 6.7 (included) and 7.5 (IC50 between 200 nM and 32 nM)) |  |  |
| C=CC(=O)N1CC(CCn2c(=O)ccc3cnc(Nc4ccc(N5CCN(C(=O)C(C)(C)C)CC5)cc4)nc32)C1 [Example 104] | E (E represents a pKi value of 7 or below (Ki of 100 nM or above)) | E (E represents a pKi value of 7 or below (Ki of 100 nM or above)) | A (A represents a pKi value≥10 (Ki≤0.1 nM)) | A (A represents a value of 3 or above) | E (E represents a pKi value of 7 or below (Ki of 100 nM or above)) | A (A represents a pIC50 value≥7.5 (IC50≤32 nM)) |  |  |
| C=CC(=O)N1CC(CCn2c(=O)ccc3cnc(Nc4cnn(CC)c4)nc32)C1 [Example 241] | E (E represents a pKi value of 7 or below (Ki of 100 nM or above)) | E (E represents a pKi value of 7 or below (Ki of 100 nM or above)) | B (B represents pKi value between 9 and 10 (Ki between 1 nM and 0.1 nM)) |  | E (E represents a pKi value of 7 or below (Ki of 100 nM or above)) |  | A (A represents a value of 3 or above) | B (B represents a pC50 value between 6.7 (included) and 7.5 (IC50 between 200 nM and 32 nM)) |
| C=CC(=O)N1CC(CCn2c(=O)ccc3cnc(Nc4ccc(N5CCN(C)CC5)cc4)nc32)C1 [Example 45] | E (E represents a pKi value of 7 or below (Ki of 100 nM or above)) | E (E represents a pKi value of 7 or below (Ki of 100 nM or above)) | B (B represents pKi value between 9 and 10 (Ki between 1 nM and 0.1 nM)) | A (A represents a value of 3 or above) | E (E represents a pKi value of 7 or below (Ki of 100 nM or above)) | B (B represents a pC50 value between 6.7 (included) and 7.5 (IC50 between 200 nM and 32 nM)) |  |  |
| C=CC(=O)N1CCN(CCn2c(=O)ccc3cnc(Nc4ccc(N5CCN(C(=O)C(C)C)CC5)cc4)nc32)CC1 [Example 213] | E (E represents a pKi value of 7 or below (Ki of 100 nM or above)) | E (E represents a pKi value of 7 or below (Ki of 100 nM or above)) | A (A represents a pKi value≥10 (Ki≤0.1 nM)) | A (A represents a value of 3 or above) | E (E represents a pKi value of 7 or below (Ki of 100 nM or above)) | B (B represents a pC50 value between 6.7 (included) and 7.5 (IC50 between 200 nM and 32 nM)) |  |  |
| C=CC(=O)N1CCN(CCn2c(=O)ccc3cnc(Nc4ccc(N5CCN(C(C)(C)C)CC5)cc4)nc32)CC1 [Example 219] | E (E represents a pKi value of 7 or below (Ki of 100 nM or above)) | E (E represents a pKi value of 7 or below (Ki of 100 nM or above)) | B (B represents pKi value between 9 and 10 (Ki between 1 nM and 0.1 nM)) | A (A represents a value of 3 or above) | E (E represents a pKi value of 7 or below (Ki of 100 nM or above)) | A (A represents a pIC50 value≥7.5 (IC50≤32 nM)) |  |  |
